In paper PMC5369052, “Calcium regulation of the human mitochondrial ATP-Mg/Pi carrier SLC25A24 uses a locking pin mechanism” (Scientific Reports, 2017):

Columns and labels:
[1] = molecular target: T1, ∆1-191 APC1 (∆1-191_APC1) (Homo sapiens, UniProt Q6NUK1); assay: […]-ATP uptake into proteoliposomes, initial rates; assay type: biochemical; settings: 1.5 μM external ATP exchanged for 2.5 mM internal ADP; 5 mM MgCl2 outside; pH 7.4, 20 °C; labelled compound
T1 construct: gene SLC25A24; carrier domain only, N-terminal truncation; His8-Factor Xa tag cut, primer adds TSED after IEGR; in liposomes
T1 sequence (Q6NUK1 191-477): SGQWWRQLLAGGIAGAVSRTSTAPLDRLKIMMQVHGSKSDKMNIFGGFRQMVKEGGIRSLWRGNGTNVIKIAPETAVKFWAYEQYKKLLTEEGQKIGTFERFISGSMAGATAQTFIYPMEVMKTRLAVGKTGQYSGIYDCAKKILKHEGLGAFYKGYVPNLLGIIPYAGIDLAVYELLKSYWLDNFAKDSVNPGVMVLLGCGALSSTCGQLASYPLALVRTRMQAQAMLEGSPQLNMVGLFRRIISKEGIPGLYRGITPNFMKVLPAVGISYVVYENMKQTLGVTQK

[2] = molecular target: T1, ∆1-191 APC1 (∆1-191_APC1); assay: counter-exchange of internal ADP with external […]-ATP in proteoliposomes; assay type: biochemical; settings: 2.5 mM internal ADP; 5 mM MgCl2 outside; pH 7.4, 20 °C
[3] = substrate: Nc1ncnc2c1ncn2[C@@H]1O[C@H](COP(=O)(O)OP(=O)(O)OP(=O)(O)O)[C@@H](O)[C@H]1O; assay: purified protein; assay type: biochemical, Homo sapiens; settings: 4 mM total external CaCl2 (calcium-activated state), 2.5 mM internal ATP, 20 mM Tris-HCl pH 7.4, 20 °C, labelled compound

In the case of `Nc1ncnc2c1ncn2[C@@H]1O[C@H](COP(=O)(O)OP(=O)(O)OP(=O)(O)O)[C@@H](O)[C@H]1O` [ATP], the “[14C]-ATP uptake into proteoliposomes, initial rates” value [1] is reported as “uptake rate of ATP was highest in the presence of externally added magnesium”.

`Nc1ncnc2c1ncn2[C@@H]1O[C@H](COP(=O)(O)OP(=O)(O)O)[C@@H](O)[C@H]1O` [ADP] was tested, and the “counter-exchange of internal ADP with external [14C]-ATP in proteoliposomes” value [2] was “hetero-exchange between ATP and ADP was monitored over a 15-minute time course”.

B1: full-length human mitochondrial ATP-Mg/Pi carrier isoform 1 (APC1; SCaMC1/SLC25A24) (Homo sapiens) (protein)
chain: MLRWLRDFVLPTAACQDAEQPTRYETLFQALDRNGDGVVDIGELQEGLRNLGIPLGQDAEEKIFTTGDVNKDGKLDFEEFMKYLKDHEKKMKLAFKSLDKNNDGKIEASEIVQSLQTLGLTISEQQAELILQSIDVDGTMTVDWNEWRDYFLFNPVTDIEEIIRFWKHSTGIDIGDSLTIPDEFTEDEKKSGQWWRQLLAGGIAGAVSRTSTAPLDRLKIMMQVHGSKSDKMNIFGGFRQMVKEGGIRSLWRGNGTNVIKIAPETAVKFWAYEQYKKLLTEEGQKIGTFERFISGSMAGATAQTFIYPMEVMKTRLAVGKTGQYSGIYDCAKKILKHEGLGAFYKGYVPNLLGIIPYAGIDLAVYELLKSYWLDNFAKDSVNPGVMVLLGCGALSSTCGQLASYPLALVRTRMQAQAMLEGSPQLNMVGLFRRIISKEGIPGLYRGITPNFMKVLPAVGISYVVYENMKQTLGVTQK
notes: full length, N-terminal His8 tag + Factor Xa site (IEGR), tag cut by factor Xa; codon-optimised, expressed in S. cerevisiae mitochondria; purified in LMNG, reconstituted in PC/cardiolipin liposomes
B1 was tested, and the Km [3] was 29 ± 8 µM.
